From ChEMBL document CHEMBL4419167, “Compositions and methods for treating respiratory injury or disease” (2018)
Calls of active or inactive are those of the source. No cut-off for these calls is given here.

Tested on: Mus musculus
Assay: Suppression of lung injury in mouse model of influenza A virus H1N1 infection-induced lung injury assessed as decrease in lung resistance at 30 ug/ml dosed via drinking water
Assay type: functional, organism-based

With `c1ccc(-c2ccc(CNCCNCc3ccc(-c4ccccn4)cc3)cc2)nc1` the Activity was “Active”.
